Measurements as given in ChEMBL document CHEMBL1201862, “PubChem BioAssay data set” (2004).
Activity calls are given as the source filed them.

Assays:
[1] = target: MAP/microtubule affinity-regulating kinase 3 (Homo sapiens, UniProt P27448); type: functional;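 note: MARK3 affinity measured as one member of a kinome panel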
[2] = target: Serine/threonine-protein kinase D2 (Homo sapiens, UniProt Q9BZL6); type: functional;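 note: measured against PRKD2 as one member of a kinome-wide kinase profiling panel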
[3] = target: Vascular endothelial growth factor receptor 2 (Homo sapiens, UniProt P35968); type: functional
[4] = target: Tyrosine-protein kinase Fyn (Homo sapiens, UniProt P06241); type: functional
[5] = target: Serine/threonine-protein kinase pim-2 (Homo sapiens, UniProt Q9P1W9); type: functional;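 note: value comes from a broad kinase panel profiling study in which PIM2 was one of the panel members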
[6] = target: Vascular endothelial growth factor receptor 1 (Homo sapiens, UniProt P17948); type: functional;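 note: measured within a kinome-wide profiling panel, FLT1 as the panel member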
[7] = target: Dual specificity tyrosine-phosphorylation-regulated kinase 1A (Homo sapiens, UniProt Q13627); type: functional;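 note: measured against DYRK1A as one member of a broad kinome profiling panel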
[8] = target: Tyrosine-protein kinase Blk (Homo sapiens, UniProt P51451); type: functional;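 note: obtained as one member of a kinome-wide kinase assay panel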
[9] = target: Fibroblast growth factor receptor 3 (Homo sapiens, UniProt P22607); type: functional
[10] = target: Receptor tyrosine-protein kinase erbB-2 (Homo sapiens, UniProt P04626); assay: Navigating the Kinome. Panel member name: ERBB2; type: functional
[11] = target: Tyrosine-protein kinase Lyn (Homo sapiens, UniProt P07948); type: functional;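 note: lyn as one member of a kinase panel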
[12] = target: Tyrosine-protein kinase JAK2 (Homo sapiens, UniProt O60674); type: functional;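 note: JAK2 tested as one member of a kinase panel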
Activin receptor type-1 = Activin receptor type-1 (Homo sapiens, UniProt Q04771); assay: Navigating the Kinome. Panel member name: ACVR1; type: functional
[13] = target: Serine/threonine-protein kinase PAK 4 (Homo sapiens, UniProt O96013); type: functional;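 note: value obtained within a kinome profiling panel in which PAK4 was one of the panel members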
[14] = target: Tyrosine-protein kinase JAK3 (Homo sapiens, UniProt P52333); type: functional
[15] = target: Tyrosine-protein kinase ITK/TSK (Homo sapiens, UniProt Q08881); type: functional;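 note: affinity for ITK measured as one member of a broad kinase panel profiling binding across the kinome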
[16] = target: Mitogen-activated protein kinase 13 (Homo sapiens, UniProt O15264); type: functional
Aurora kinase A = Aurora kinase A (Homo sapiens, UniProt O14965); type: functional;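 note: value from the Navigating the Kinome kinase panel profiling, panel entry STK6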
[17] = target: Dual specificity tyrosine-phosphorylation-regulated kinase 1B (Homo sapiens, UniProt Q9Y463); assay: Navigating the Kinome. Panel member name: DYRK1B; type: functional
[18] = target: Tyrosine-protein kinase ABL1 (Homo sapiens, UniProt P00519); type: functional
[19] = target: Leucine-rich repeat serine/threonine-protein kinase 2 (Homo sapiens, UniProt Q5S007); type: functional;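 note: value from a broad kinome-wide panel profiling study in which LRRK2 was one of the kinases tested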
[20] = target: Insulin-like growth factor 1 receptor (Homo sapiens, UniProt P08069); assay: Navigating the Kinome. Panel member name: IGF1R; type: functional
[21] = target: Benomyl/methotrexate resistance protein (Candida albicans, UniProt P28873); assay: CaMdr1 efflux pump inhibitor potency, dose response, singleplex, Cherry Pick1 hits (AID 588608); type: functional
[22] = target: Multidrug resistance protein CDR2 (Candida albicans (strain SC5314 / ATCC MYA-2876) (Yeast), UniProt P78595); assay: CaCDR2 efflux pump inhibitors in yeast, dose response, S. cerevisiae AD1-8u, singleplex, Cherry Pick1 hits (AID 588604); type: functional
ORF 73 = ORF 73 (Human herpesvirus 8, UniProt O40947); assay: inhibitors of C-LANA binding to LBS DNA, dose response, biochemical, fluorescence polarization, cherry-picked samples (AID 504725); parameters: species or system Human gammaherpesvirus 8;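 note: fluorescence polarization of a labeled DNA duplex reporting LANA DNA binding; potency is for inhibitors that block LANA binding to the DNA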
[23] = target: Calcium/calmodulin-dependent protein kinase type II subunit beta (Homo sapiens, UniProt Q13554); type: functional
[24] = target: Receptor-type tyrosine-protein kinase FLT3 (Homo sapiens, UniProt P36888); type: functional;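 note: FLT3 was tested as one member of a kinome-wide kinase panel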
[25] = target: Serine/threonine-protein kinase TAO1 (Homo sapiens, UniProt Q7L7X3); type: functional
[26] = target: Calcium/calmodulin-dependent protein kinase type II subunit delta (Homo sapiens, UniProt Q13557); type: functional
Aurora kinase B = Aurora kinase B (Homo sapiens, UniProt Q96GD4); type: functional
[27] = target: Calcium/calmodulin-dependent protein kinase type II subunit gamma (Homo sapiens, UniProt Q13555); type: functional
SRSF protein kinase 1 = SRSF protein kinase 1 (Homo sapiens, UniProt Q96SB4); type: functional;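 note: measured as one member of a kinome-wide kinase profiling panel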
[28] = target: Mitogen-activated protein kinase kinase kinase kinase 4 (Homo sapiens, UniProt O95819); type: functional
[29] = non-specific cell cytotoxicity, dose response, cytotoxicity control for PAX8 inhibitor project, plate reader, dry powder samples (AID 743021); type: functional, cell-based
Prothrombin = Prothrombin (Bos taurus, UniProt P00735); assay: thrombin inhibition, dose response, biochemical, fluorescence polarization, uHTS hits (AID 602369); type: functional
[30] = target: 72 kDa type IV collagenase (Homo sapiens, UniProt P08253); assay: Dose Response validation of uHTS RPN11 inhibitor hits using a MMP-2 Fluorescence assay.; type: functional
Paired box protein Pax-8 = Paired box protein Pax-8 (Homo sapiens, UniProt Q06710); assay: inhibitors of PAX8-driven TPO luciferase reporter, dose response, RMG-I cells, cherry-pick (AID 687027); type: functional, cell-based;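 note: luciferase reporter driven by Pax8 target thyroperoxidase promoter measured by SteadyGlo luminescence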
[31] = target: 26S proteasome non-ATPase regulatory subunit 14 (Homo sapiens, UniProt O00487); assay: inhibition of proteasome subunit RPN11 – biochemical, fluorescence polarization, uHTS hits, confirmation (AID 602368); type: functional
[32] = inhibitors of SNCA 5'UTR-driven reporter translation, confirmation, H4 neuroglioma cells, luminescence (AID 1988); type: functional, cell-based
[33] = Counterscreen for activators of the function of SWI/SNF related, matrix associated, actin dependent regulator of chromatin, subfamily a, member 2 (SMARCA2, BRM): Luminescence-based cell-based high throughput dose response assay to identify non-selective compounds using the VP16 reporter assay.; type: functional
[34] = inhibitors of firefly luciferase expression or activity, dose response, H4 neuroglioma cells, luminescence (AID 1990); type: functional, cell-based
[35] = target: SWI/SNF-related matrix-associated actin-dependent regulator of chromatin subfamily A member 2 (Homo sapiens, UniProt P51531); assay: Luminescence-based cell-based high throughput dose response assay to identify activators of the function of SWI/SNF related, matrix associated, actin dependent regulator of chromatin, subfamily a, member 2 (SMARCA2, BRM).; type: functional
[36] = Luminescence Cell-Based Dose Response HTS to Identify Inhibitors of 5'UTR Stem-Loop Driven Prion Protein mRNA Translation in H4 Neuroglioblastoma Cells. [Related pubchem assays: 1827 (Project Summary), 1813 (Primary HTS)]; type: functional

Aurora kinase B, sequence (Q96GD4 whole entry): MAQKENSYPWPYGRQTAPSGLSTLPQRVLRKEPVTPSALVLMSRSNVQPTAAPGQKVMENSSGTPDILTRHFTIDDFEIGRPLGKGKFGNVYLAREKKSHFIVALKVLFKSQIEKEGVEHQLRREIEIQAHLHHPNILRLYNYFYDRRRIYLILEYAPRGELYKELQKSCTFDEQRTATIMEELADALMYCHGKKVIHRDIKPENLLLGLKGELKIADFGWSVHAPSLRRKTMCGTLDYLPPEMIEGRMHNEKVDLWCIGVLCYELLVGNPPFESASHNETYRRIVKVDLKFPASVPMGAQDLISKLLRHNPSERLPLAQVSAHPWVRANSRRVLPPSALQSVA
Leucine-rich repeat serine/threonine-protein kinase 2, sequence (Q5S007 whole entry): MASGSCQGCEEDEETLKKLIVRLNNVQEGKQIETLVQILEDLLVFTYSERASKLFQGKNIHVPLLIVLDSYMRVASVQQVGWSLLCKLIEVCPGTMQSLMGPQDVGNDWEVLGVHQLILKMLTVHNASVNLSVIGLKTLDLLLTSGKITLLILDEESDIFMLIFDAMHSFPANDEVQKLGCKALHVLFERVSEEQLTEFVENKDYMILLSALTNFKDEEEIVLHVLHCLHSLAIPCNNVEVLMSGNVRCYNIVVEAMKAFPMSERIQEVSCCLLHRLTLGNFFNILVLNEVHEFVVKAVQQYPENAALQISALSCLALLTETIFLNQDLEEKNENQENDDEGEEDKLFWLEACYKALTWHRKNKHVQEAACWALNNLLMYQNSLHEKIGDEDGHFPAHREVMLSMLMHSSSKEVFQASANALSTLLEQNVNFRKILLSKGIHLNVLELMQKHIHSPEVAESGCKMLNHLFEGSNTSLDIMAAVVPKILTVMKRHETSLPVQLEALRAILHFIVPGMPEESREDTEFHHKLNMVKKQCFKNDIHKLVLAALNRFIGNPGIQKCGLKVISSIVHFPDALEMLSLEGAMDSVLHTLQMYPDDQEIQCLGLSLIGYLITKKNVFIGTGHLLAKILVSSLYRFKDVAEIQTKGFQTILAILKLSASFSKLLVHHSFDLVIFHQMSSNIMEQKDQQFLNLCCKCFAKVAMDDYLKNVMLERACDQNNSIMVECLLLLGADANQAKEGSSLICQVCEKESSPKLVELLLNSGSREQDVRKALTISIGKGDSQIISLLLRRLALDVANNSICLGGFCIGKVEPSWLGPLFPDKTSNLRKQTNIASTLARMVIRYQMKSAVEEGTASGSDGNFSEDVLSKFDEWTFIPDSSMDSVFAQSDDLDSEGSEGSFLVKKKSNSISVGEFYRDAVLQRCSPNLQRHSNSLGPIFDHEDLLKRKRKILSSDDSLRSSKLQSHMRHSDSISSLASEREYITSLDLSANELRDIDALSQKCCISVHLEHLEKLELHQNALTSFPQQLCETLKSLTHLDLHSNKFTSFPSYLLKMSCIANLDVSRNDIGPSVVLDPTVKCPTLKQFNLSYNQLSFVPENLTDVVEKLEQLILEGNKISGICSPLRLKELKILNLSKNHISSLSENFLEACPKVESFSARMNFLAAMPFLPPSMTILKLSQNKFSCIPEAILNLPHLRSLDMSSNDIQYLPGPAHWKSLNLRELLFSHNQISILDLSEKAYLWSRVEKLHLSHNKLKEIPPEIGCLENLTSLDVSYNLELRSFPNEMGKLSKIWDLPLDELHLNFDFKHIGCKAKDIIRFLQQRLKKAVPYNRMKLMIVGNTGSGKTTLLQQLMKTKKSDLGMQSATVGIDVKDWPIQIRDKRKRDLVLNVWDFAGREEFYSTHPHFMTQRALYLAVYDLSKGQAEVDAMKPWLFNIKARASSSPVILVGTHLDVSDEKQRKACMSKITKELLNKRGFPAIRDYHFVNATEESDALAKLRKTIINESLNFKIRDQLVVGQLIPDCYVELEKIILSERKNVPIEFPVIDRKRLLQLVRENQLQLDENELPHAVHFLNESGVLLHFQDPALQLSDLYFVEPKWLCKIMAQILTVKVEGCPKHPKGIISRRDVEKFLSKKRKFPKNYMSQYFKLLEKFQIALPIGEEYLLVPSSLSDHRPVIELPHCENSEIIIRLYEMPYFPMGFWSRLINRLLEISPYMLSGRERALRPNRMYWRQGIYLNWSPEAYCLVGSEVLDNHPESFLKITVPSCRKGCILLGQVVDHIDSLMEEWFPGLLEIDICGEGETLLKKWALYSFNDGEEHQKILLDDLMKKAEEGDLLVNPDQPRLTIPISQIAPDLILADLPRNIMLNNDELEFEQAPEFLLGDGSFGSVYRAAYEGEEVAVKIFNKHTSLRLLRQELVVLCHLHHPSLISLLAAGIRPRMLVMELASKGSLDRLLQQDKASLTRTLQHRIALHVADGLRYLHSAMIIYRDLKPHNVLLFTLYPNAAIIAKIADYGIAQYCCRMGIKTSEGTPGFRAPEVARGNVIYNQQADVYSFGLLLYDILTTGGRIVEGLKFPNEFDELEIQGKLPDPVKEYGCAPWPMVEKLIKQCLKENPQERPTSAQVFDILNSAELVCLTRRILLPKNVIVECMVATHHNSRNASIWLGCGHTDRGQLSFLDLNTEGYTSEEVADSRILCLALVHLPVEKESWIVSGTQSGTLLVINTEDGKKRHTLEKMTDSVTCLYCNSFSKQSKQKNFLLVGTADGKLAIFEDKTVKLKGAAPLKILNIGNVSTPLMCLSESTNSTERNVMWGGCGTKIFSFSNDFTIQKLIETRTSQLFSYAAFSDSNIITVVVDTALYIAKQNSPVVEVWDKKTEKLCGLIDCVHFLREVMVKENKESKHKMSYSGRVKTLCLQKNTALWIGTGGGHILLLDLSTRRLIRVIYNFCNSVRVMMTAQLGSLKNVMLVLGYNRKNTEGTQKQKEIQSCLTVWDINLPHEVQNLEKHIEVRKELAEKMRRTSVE
Serine/threonine-protein kinase D2, sequence (Q9BZL6 whole entry): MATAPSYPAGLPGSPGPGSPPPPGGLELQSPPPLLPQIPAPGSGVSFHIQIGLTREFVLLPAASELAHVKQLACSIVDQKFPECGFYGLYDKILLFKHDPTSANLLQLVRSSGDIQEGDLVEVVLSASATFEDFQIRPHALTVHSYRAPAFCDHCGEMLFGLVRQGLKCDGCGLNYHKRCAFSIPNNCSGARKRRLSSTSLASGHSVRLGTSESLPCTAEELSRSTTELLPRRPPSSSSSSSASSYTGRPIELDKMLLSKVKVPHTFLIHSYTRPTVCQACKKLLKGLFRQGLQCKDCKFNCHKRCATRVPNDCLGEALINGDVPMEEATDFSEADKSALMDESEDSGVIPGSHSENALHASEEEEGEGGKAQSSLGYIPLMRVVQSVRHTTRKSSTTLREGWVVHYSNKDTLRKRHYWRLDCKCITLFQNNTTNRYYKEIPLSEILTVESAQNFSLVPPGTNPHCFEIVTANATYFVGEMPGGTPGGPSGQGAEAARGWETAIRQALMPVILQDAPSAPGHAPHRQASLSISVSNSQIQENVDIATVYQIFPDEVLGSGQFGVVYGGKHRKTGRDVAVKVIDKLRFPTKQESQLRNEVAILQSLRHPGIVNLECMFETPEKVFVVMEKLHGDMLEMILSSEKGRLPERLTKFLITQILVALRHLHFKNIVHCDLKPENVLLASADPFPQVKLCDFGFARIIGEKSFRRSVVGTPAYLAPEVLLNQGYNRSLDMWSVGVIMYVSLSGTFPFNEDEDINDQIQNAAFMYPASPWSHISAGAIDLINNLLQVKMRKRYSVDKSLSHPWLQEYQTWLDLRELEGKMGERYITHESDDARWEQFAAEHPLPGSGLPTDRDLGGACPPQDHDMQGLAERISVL
Activin receptor type-1, sequence (Q04771 whole entry): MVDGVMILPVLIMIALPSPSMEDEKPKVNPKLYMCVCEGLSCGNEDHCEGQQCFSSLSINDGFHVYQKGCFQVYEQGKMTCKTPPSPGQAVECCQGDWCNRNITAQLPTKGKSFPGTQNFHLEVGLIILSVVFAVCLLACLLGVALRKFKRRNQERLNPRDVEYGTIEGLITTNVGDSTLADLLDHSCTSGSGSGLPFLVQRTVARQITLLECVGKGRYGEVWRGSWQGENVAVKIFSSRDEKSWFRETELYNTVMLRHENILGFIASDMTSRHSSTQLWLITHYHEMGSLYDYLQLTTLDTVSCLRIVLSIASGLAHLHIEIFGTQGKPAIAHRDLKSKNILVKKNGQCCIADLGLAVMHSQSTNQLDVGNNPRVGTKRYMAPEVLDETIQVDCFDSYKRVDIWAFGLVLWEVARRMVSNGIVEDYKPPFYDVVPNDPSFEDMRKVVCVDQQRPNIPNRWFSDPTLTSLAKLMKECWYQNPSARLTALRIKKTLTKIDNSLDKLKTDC
Serine/threonine-protein kinase PAK 4, sequence (O96013 whole entry): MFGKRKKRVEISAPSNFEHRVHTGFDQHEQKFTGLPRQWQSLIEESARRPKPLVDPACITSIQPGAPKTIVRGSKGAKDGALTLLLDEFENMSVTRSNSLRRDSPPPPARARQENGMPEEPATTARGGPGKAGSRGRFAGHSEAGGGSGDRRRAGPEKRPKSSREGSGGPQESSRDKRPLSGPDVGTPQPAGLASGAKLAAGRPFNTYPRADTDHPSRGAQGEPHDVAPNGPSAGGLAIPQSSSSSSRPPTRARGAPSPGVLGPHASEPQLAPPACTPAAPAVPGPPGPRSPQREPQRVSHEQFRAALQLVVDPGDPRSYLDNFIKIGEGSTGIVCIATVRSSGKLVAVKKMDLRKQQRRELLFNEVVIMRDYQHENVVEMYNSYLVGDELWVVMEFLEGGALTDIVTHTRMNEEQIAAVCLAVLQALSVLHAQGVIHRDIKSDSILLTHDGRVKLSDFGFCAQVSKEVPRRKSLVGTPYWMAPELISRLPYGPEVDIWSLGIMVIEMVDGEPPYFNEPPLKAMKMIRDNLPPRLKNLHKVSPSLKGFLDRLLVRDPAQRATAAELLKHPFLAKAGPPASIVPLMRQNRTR

With `O=S(=O)(c1cccc2cnccc12)N1CCCNCC1` [FASUDIL] the Ki [1] was > 5.01 µM (inactive), the Ki [2] was 1.26 µM (active) and the pKi [2] was 5.9. The Ki [3] was > 2 µM (inactive), the Ki [4] was > 0.794 µM (inactive) and the Ki [5] was > 1.58 µM (inactive). The Ki [6] was > 0.398 µM (inactive), the Ki [7] was > 1.26 µM (inactive) and the Ki [8] was > 1.58 µM (inactive). The Ki [9] was > 2 µM (inactive), the Ki [10] was > 1.58 µM (inactive) and the Ki [11] was > 1.58 µM (inactive). The Ki [12] was > 1.58 µM (inactive), the Ki (Activin receptor type-1) was > 3.98 µM (inactive) and the Ki [13] was > 5.01 µM (inactive). For the same compound, the Ki [14] was > 1.58 µM (inactive), the Ki [15] was > 1.58 µM (inactive) and the Ki [16] was > 7.94 µM (inactive). The Ki (Aurora kinase A) was > 1.58 µM (inactive), the Ki [17] was > 1.26 µM (inactive) and the Ki [18] was > 0.631 µM (inactive). For the same compound, the Ki [19] was 2 µM (active), the pKi [19] was 5.7 and the Ki [20] was > 1 µM (inactive).
In the case of `O=C1/C(=C/c2ccco2)Oc2c1ccc(O)c2CN1CCCCC1`, the EC50 [21] is reported as 9.63 µM (active), the EC50 [22] is reported as 18.4 µM (active) and the AC50 (ORF 73) is reported as 14.5 µM (active).
For `CCCCOc1ccc(C(C)(C)CC)cc1S(=O)(=O)Nc1ccc(-c2csc3ncnc(N)c23)cc1`, the Ki [23] was 3.98 µM (active), the Ki [24] was 2 µM (active) and the Ki [25] was 7.94 µM (active). For the same compound, the Ki [26] was 6.31 µM (active), the Ki (Aurora kinase B) was 6.31 µM (active) and the Ki [27] was 6.31 µM (active).
For `COc1cccc(-n2nc(C)c3c(=O)c4cc(Cl)ccc4n(O)c32)c1`, the Ki (SRSF protein kinase 1) was 7.94 µM (active), the Ki (Aurora kinase B) was 1.26 µM (active) and the Ki [28] was 6.31 µM (active).
In the case of `COc1ccc(-n2nc3c(N4CCC(C(=O)NCc5cccc(C)c5)CC4)nnc(C)c3c2C)cc1`, the AC50 [29] is reported as 23.8 µM (active), the IC50 (Prothrombin) is reported as 48.7 µM (active) and the IC50 [30] is reported as > 100 µM (inactive). For the same compound, the AC50 (Paired box protein Pax-8) was 5.58 µM (active), the IC50 [31] was 29.3 µM (active) and the EC50 [32] was 6.99 µM (active). For the same compound, the EC50 [33] was > 91.1 µM (inactive), the EC50 [34] was 9.83 µM (active) and the EC50 [35] was > 91.1 µM (inactive). For the same compound, the EC50 [36] was 12 µM (active).
